Here are results for three compounds from US12275737B2, “Polymorphs of a kinase inhibitor, pharmaceutical compositions containing such a compound, preparation methods, and applications” (Meryx, Inc., priority 2019, dated 2025).

Data set [1] is described as follows: Determination of saturated solubility. It counts as physicochemical. The conditions noted are these: shaken 4 hours; for saturated solubility: 37° C. As for the experimental part:
An appropriate amount of a sample of the compound is supersaturated in water at a pH of 1-8 and shaken at 37° C. for 4 hours with a shaker. The compound is sampled, centrifuged, then the supernatant is diluted and tested by HPLC. Calculations are compared to an external standard.
The saturated solubility of the compound of Crystal Form 1 and Crystal Form 2 of the compound of Formula I and MRX-2843 free base at 37° C. in different pH values are shown in Table 3.

A short description of data set [2]: Determination of crystal form stability. In kind it is physicochemical.
A short description of data set [3]: Pharmacokinetics after oral capsule in male beagle dogs. In kind it is in vivo. The conditions noted are these: for absorption in the body compared with the free alkali of the compound of Formula I: conclusion from Table 6. As for the experimental part:
Nine male beagle dogs are divided into three groups, three in each group. They are each respectively administrated a 5 mg/kg oral capsule (PO) of Crystal Form 1, Crystal Form 2 and free base of the compound of Formula I (the dose is calculated according to the dose of the free base). Blood is collected from the jugular vein before administration and after administration for 15 minutes, 30 minutes, 1 hour, 2 hours, 4 hours, 6 hours, 8 hours, 10 hours, and 24 hours, and the plasma is separated and stored in a refrigerator at −80° C. LC-MS is subsequently used for analysis.

Setting [4] is: pH 2.0, water, trihydrochloride.
[5] abbreviates: pH 3.0, water, trihydrochloride.
Where [6] appears, read: pH 4.5, water, trihydrochloride.
Setting [7] is: pH 6.0, water, trihydrochloride.
Where [8] appears, read: pH 6.8, water, trihydrochloride.
The mark [9] stands for this setting: pH 7.4, water, trihydrochloride.
The mark [10] stands for this setting: pH 8.0, water, trihydrochloride.
The mark [11] stands for this setting: stored at 40° C./75% RH for 1, 3 and 6 months, trihydrochloride.
Where [12] appears, read: 5 mg/kg (as free base), plasma, trihydrochloride.
[13] abbreviates: male, beagle, dog, plasma, po, 5 mg/kg, 5 mg/kg (as free base).
[14] abbreviates: 5 mg/kg (as free base), plasma, listed as Free base of the compound of Formula I.

Structures are written as SMILES. Structures can show the parent of a compound that is named as a salt. Where two headings read alike, the source gives them in different places.

Consider `CN1CCN(Cc2ccc(-c3cn([C@H]4CC[C@H](O)CC4)c4nc(NCCC5CC5)ncc34)cc2)CC1` [Crystal Form 1, trihydrochloride], for which the saturated solubility came out at 489.60 mg/mL in data set [1] (setting [4]); 522.25 mg/mL in data set [1] (setting [5]); 513.40 mg/mL in data set [1] (setting [6]); 460.64 mg/mL in data set [1] (setting [7]); 554.17 mg/mL in data set [1] (setting [8]); 494.83 mg/mL in data set [1] (setting [9]). The saturated solubility in data set [1] (setting [10]) was determined as 562.59 mg/mL. Moreover, in data set [1] (water, 37 °C, pH 1, simulated gastric fluid, thermodynamic from solid, pH 1.0, water), the solubility at 4 h is 587 mg/mL. For the same compound, the “crystal form after storage” value was “remains unchanged” in data set [2] (stored at 25° C./60% RH for 1, 3 and 6 months); “remains unchanged” in data set [2] (setting [11]). In data set [3] (setting [12]), this compound showed a Cmax of 133 ng/mL. In addition, the “absorption in the body compared with the free alkali of the compound of Formula I” value in data set [3] (5 mg/kg) was “better absorbed”. In data set [3] (setting [13]), this compound gave an AUC(0-inf) of 1620 ng·h/mL. Moreover, in data set [3] (setting [13]), the AUC(0-t) is 1400 ng·h/mL. The Tmax in data set [3] (male, beagle, dog, plasma, po, 5 mg/kg, 5 mg/kg (as free base), plasma, read-out: Tmax) turned out to be 2.67 h.

Take `CN1CCN(Cc2ccc(-c3cn([C@H]4CC[C@H](O)CC4)c4nc(NCCC5CC5)ncc34)cc2)CC1` [MRX-2843 free base, reference compound]: the saturated solubility in data set [1] (pH 1.0, water) turned out to be 301.086 mg/mL; in data set [1] (pH 2.0, water), 3.110 mg/mL; in data set [1] (pH 3.0, water) it was 1.516 mg/mL; in data set [1] (pH 4.5, water), 2.034 mg/mL; in data set [1] (pH 6.0, water), 0.018 mg/mL; in data set [1] (pH 6.8, water) it was 0.008 mg/mL. Further, the saturated solubility is reported as 0.007 mg/mL in data set [1] (pH 7.4, water) and 0.008 mg/mL in data set [1] (pH 8.0, water). Further, the AUCInf in data set [3] (setting [14]) was 1,318 h * ng/mL. In data set [3] (setting [14]), the AUClast was 1,169 h * ng/mL. The compound also registered a Cmax in data set [3] (setting [14]) of 285 ng/mL. Further, the Tmax in data set [3] (setting [14]) amounted to 3.33 h.

Regarding `CN1CCN(Cc2ccc(-c3cn([C@H]4CC[C@H](O)CC4)c4nc(NCCC5CC5)ncc34)cc2)CC1` [Crystal Form 2, trihydrochloride], the saturated solubility in data set [1] (pH 1.0, water, trihydrochloride) was found to be 535.05 mg/mL; in data set [1] (setting [4]) it was 531.72 mg/mL; in data set [1] (setting [5]), 512.80 mg/mL; in data set [1] (setting [6]) it was 527.84 mg/mL; in data set [1] (setting [7]) it was 546.95 mg/mL; in data set [1] (setting [8]), 557.34 mg/mL. The saturated solubility in data set [1] (setting [9]) is recorded as 516.01 mg/mL; in data set [1] (setting [10]), 479.26 mg/mL. The “crystal form after storage” value in data set [2] (stored at 5° C. for 18 and 24 months) is recorded as “remains unchanged”; in data set [2] (stored at 25° C./60% RH for 1, 3, 6, 9, 12, 18 and 24 months), “remained unchanged”; in data set [2] (setting [11]), “unchanged”. In data set [3] (setting [12]), the AUCInf is reported as 1,530 h * ng/mL. Besides, the AUClast in data set [3] (setting [12]) is 1,323 h * ng/mL. The Cmax in data set [3] (setting [12]) amounted to 125 ng/mL. The Tmax in data set [3] (setting [12]) worked out at 2.00 h. Further, in data set [3] (5 mg/kg), the “absorption in the body compared with the free alkali of the compound of Formula I” value is listed as “better absorbed”.
